In ChEMBL document CHEMBL3885861, “Open TG-GATES”:

Species on record: Rattus norvegicus
Assay: Open TG-GATES - Regimen: Daily Repeat
Type: toxicity, organism-based, Sprague-Dawley
Set-up: regimen Daily Repeat, gender Male, age 6 weeks
Conditions: in vivo, po, route gavage; for APTT / Bas / Eos / Fbg / Hb / Ht / Lym / MCH / MCV / Mono / Neu / PT / Plat / RBC / Ret / WBC: tissue Blood; for KIDNEY_L / KIDNEY_R / KIDNEY_TOTAL: tissue Kidney; for LIVER: tissue Liver; for ALP / ALT / AST / BUN / CRE / Ca / Cl / DBIL / GLC / IP / K / LDH / Na / PL / RALB / TBIL / TP / gamma-GTP: tissue Plasma
[1] = 0 mg/kg, 72 h, dose level Control, time 3 day
[2] = 0 mg/kg, […], dose level Control, time 7 day
[3] = 0 mg/kg, […], dose level Control, time 14 day
[4] = 0 mg/kg, […], dose level Control, time 28 day

Molecule NC(=O)N1c2ccccc2C=Cc2ccccc21 [CARBAMAZEPINE] has a TERMINAL_BW [1] of 235.3 g, an APTT [1] of 19.1 s and a Bas [1] of 0%. It also gave an Eos [1] of 1%, a Fbg [1] of 213.8 mg/dL and a Hb [1] of 13.6 g/dL. For the same molecule, the Ht [1] was 40.2%, the Lym [1] was 79% and the MCH [1] was 21 pg. For the same molecule, the MCV [1] was 61.9 fL, the Mono [1] was 3.6% and the Neu [1] was 15.6%. It also gave a PT [1] of 12.3 s, a Plat [1] of 123.2 x10_4/uL and an RBC [1] of 648.8 x10_4/ul. For the same molecule, the Ret [1] was 4.9%, the WBC [1] was 95.6 x10_2/uL and the KIDNEY_L [1] was 1.1 g. It also gave a KIDNEY_R [1] of 1.1 g, a KIDNEY_TOTAL [1] of 2.2 g and an LIVER [1] of 11.5 g. The ALP [1] was 1022.4 IU/L, the ALT [1] was 41.4 IU/L and the AST [1] was 77 IU/L. For the same molecule, the BUN [1] was 15.6 mg/dL, the CRE [1] was 0.4 mg/dL and the Ca [1] was 10.7 mg/dL. For the same molecule, the Cl [1] was 102.4 meq/L, the DBIL [1] was 0.08 mg/dL and the GLC [1] was 213.8 mg/dL. The IP [1] was 7.8 mg/dL, the K [1] was 3.8 meq/L and the LDH [1] was 178.8 IU/L. It also gave a Na [1] of 140.4 meq/L, a PL [1] of 144 mg/dL and an RALB [1] of 3.3 g/dL. It also gave a TBIL [1] of 0.1 mg/dL, a TP [1] of 5.6 g/dL and a gamma-GTP [1] of 0.8 IU/L. For the same molecule, the TERMINAL_BW [2] was 265.1 g, the TERMINAL_BW [3] was 321.1 g and the TERMINAL_BW [4] was 388.8 g. For the same molecule, the APTT [2] was 21.2 s, the Bas [2] was 0% and the Eos [2] was 1%. It also gave a Fbg [2] of 223 mg/dL, a Hb [2] of 14 g/dL and a Ht [2] of 40.8%. It also gave a Lym [2] of 81%, an MCH [2] of 20.8 pg and an MCV [2] of 60.5 fL. The Mono [2] was 2.4%, the Neu [2] was 14.4% and the PT [2] was 11.9 s. The Plat [2] was 122.6 x10_4/uL, the RBC [2] was 674.4 x10_4/ul and the Ret [2] was 3.8%. The WBC [2] was 90.9 x10_2/uL, the APTT [3] was 22 s and the Bas [3] was 0%. It also gave an Eos [3] of 1%, a Fbg [3] of 219 mg/dL and a Hb [3] of 14.5 g/dL. The Ht [3] was 41.7%, the Lym [3] was 82.2% and the MCH [3] was 20.7 pg. It also gave an MCV [3] of 59.6 fL, a Mono [3] of 2.6% and a Neu [3] of 13.2%. For the same molecule, the PT [3] was 12.2 s, the Plat [3] was 129 x10_4/uL and the RBC [3] was 700.4 x10_4/ul. It also gave a Ret [3] of 4.2%, a WBC [3] of 120.8 x10_2/uL and an APTT [4] of 20.4 s. The Bas [4] was 0%, the Eos [4] was 1.2% and the Fbg [4] was 212.8 mg/dL. For the same molecule, the Hb [4] was 15.3 g/dL, the Ht [4] was 43.3% and the Lym [4] was 81%. For the same molecule, the MCH [4] was 20.1 pg, the MCV [4] was 56.8 fL and the Mono [4] was 2.4%. For the same molecule, the Neu [4] was 14.6%, the PT [4] was 12.2 s and the Plat [4] was 111.8 x10_4/uL. For the same molecule, the RBC [4] was 762 x10_4/ul, the Ret [4] was 2.4% and the WBC [4] was 105.6 x10_2/uL. The KIDNEY_L [2] was 1.1 g, the KIDNEY_R [2] was 1.1 g and the KIDNEY_TOTAL [2] was 2.3 g. For the same molecule, the KIDNEY_L [3] was 1.3 g, the KIDNEY_R [3] was 1.2 g and the KIDNEY_TOTAL [3] was 2.5 g. The KIDNEY_L [4] was 1.4 g, the KIDNEY_R [4] was 1.4 g and the KIDNEY_TOTAL [4] was 2.8 g. The LIVER [2] was 12.2 g, the LIVER [3] was 13.6 g and the LIVER [4] was 15.2 g. It also gave an ALP [2] of 993 IU/L, an ALT [2] of 37.6 IU/L and an AST [2] of 74 IU/L. For the same molecule, the BUN [2] was 16.8 mg/dL, the CRE [2] was 0.4 mg/dL and the Ca [2] was 10.5 mg/dL. The Cl [2] was 102.4 meq/L, the DBIL [2] was 0.1 mg/dL and the GLC [2] was 218.2 mg/dL. For the same molecule, the IP [2] was 7.5 mg/dL, the K [2] was 3.8 meq/L and the LDH [2] was 218.6 IU/L. It also gave a Na [2] of 140.6 meq/L, a PL [2] of 158.6 mg/dL and an RALB [2] of 3.5 g/dL. The TBIL [2] was 0.2 mg/dL, the TP [2] was 5.8 g/dL and the gamma-GTP [2] was 1 IU/L. It also gave an ALP [3] of 817.2 IU/L, an ALT [3] of 36 IU/L and an AST [3] of 64 IU/L. For the same molecule, the BUN [3] was 16.7 mg/dL, the CRE [3] was 0.5 mg/dL and the Ca [3] was 10.7 mg/dL. It also gave a Cl [3] of 102.4 meq/L, a DBIL [3] of 0.1 mg/dL and a GLC [3] of 207.4 mg/dL. It also gave an IP [3] of 7 mg/dL, a K [3] of 3.8 meq/L and an LDH [3] of 204.6 IU/L. The Na [3] was 141.6 meq/L, the PL [3] was 151.4 mg/dL and the RALB [3] was 3.5 g/dL. It also gave a TBIL [3] of 0.2 mg/dL, a TP [3] of 5.9 g/dL and a gamma-GTP [3] of 1 IU/L. For the same molecule, the ALP [4] was 739.6 IU/L, the ALT [4] was 35.4 IU/L and the AST [4] was 68.2 IU/L. For the same molecule, the BUN [4] was 18 mg/dL, the CRE [4] was 0.5 mg/dL and the Ca [4] was 10.3 mg/dL. For the same molecule, the Cl [4] was 102 meq/L, the DBIL [4] was 0.1 mg/dL and the GLC [4] was 224.8 mg/dL. The IP [4] was 6.7 mg/dL, the K [4] was 3.4 meq/L and the LDH [4] was 182.6 IU/L. It also gave a Na [4] of 141 meq/L, a PL [4] of 147.8 mg/dL and an RALB [4] of 3.4 g/dL. For the same molecule, the TBIL [4] was 0.2 mg/dL, the TP [4] was 6.2 g/dL and the gamma-GTP [4] was 1.2 IU/L. The TERMINAL_BW (30 mg/kg, 72 h, dose level Low, time 3 day) was 237.7 g.
